According to PubChem BioAssay (NCI):
Values joined by “and” are separate entries in the source; they are usually repeats but may differ in a detail not shown here. Identical values can stand only once.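 96-well plates; 48 h exposure; 5 concentrations. Endpoints by linear interpolation between flanking doses. Not reached: highest tested concentration assigned. GI50: concentration for 50% inhibition of growth. Definition used: TGI = concentration required for complete inhibition of growth.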

Legend:
Assay in all cases: NCI-60 cell line screen, 48 h
[1] = system: SNB-19 CNS
[2] = system: COLO 205 colon
[3] = system: OVCAR-8 ovarian
[4] = system: RXF 393 renal
[5] = system: HOP-92 NSCLC
[6] = system: CAKI-1 renal
[7] = system: EKVX NSCLC
[8] = system: MDA-MB-231 breast
[9] = system: SNB-75 CNS
[10] = system: SK-MEL-28 melanoma

With `CCc1ccc(Oc2c(-c3ccc(OCc4ccc(Cl)cc4)cc3O)n[nH]c2C(F)(F)F)cc1` the GI50 [1] was 1980 nM, the TGI [1] was 4210 nM and the GI50 [2] was 1710 nM. The TGI [2] was 3270 nM, the GI50 [3] was 2520 nM and the TGI [3] was 5870 nM. It also gave a GI50 [4] of 1650 nM, a TGI [4] of 3160 nM and a GI50 [5] of 2030 nM. For the same compound, the TGI [5] was 4770 nM, the GI50 [6] was 2290 nM and the TGI [6] was 5950 nM. The GI50 [7] was 1890 nM, the TGI [7] was 4340 nM and the GI50 [8] was 1910 nM. For the same compound, the TGI [8] was 3960 nM, the GI50 [9] was 1480 nM and the TGI [9] was 5800 nM. It also gave a GI50 [10] of 1820 nM and a TGI [10] of 3370 nM.
In the case of `O=C1Nc2c(ccc(Cl)c2Cl)/C1=C/c1cc(Br)c(O)c(Br)c1`, the GI50 [1] is reported as 4600 nM, the TGI [1] is reported as over 63300 nM and the GI50 [2] is reported as 5050 nM. It also gave a TGI [2] of 27400 nM, a GI50 [3] of 10000 nM and a TGI [3] of over 100000 nM. For the same compound, the GI50 [4] was 7320 nM, the TGI [4] was 35200 nM and the GI50 [5] was 7170 nM. It also gave a TGI [5] of 62300 nM, a GI50 [6] of 2590 nM and a TGI [6] of over 37000 nM. It also gave a GI50 [7] of 4540 nM, a TGI [7] of 97300 nM and a GI50 [8] of 6810 nM. It also gave a TGI [8] of 49600 nM, a GI50 [9] of 9000 nM and a TGI [9] of 83200 nM. It also gave a GI50 [10] of 7070 nM and a TGI [10] of over 100000 nM.
Work on `COC(COC(N)=O)C1=C(N2CC2)C(=O)C(C)=C(N2CC2)C1=O` (configuration not stated) yielded a TGI [1] of 1750 nM, a TGI [2] of 389 nM and a TGI [3] of 240 nM. The TGI [4] was 256 nM, the TGI [5] was 1150 nM and the TGI [6] was 85 nM. It also gave a TGI [7] of 1240 nM, a TGI [8] of 859 nM and a TGI [9] of 322 nM. It also gave a TGI [10] of 484 nM.
`O=C(CN(/C=C/C(=O)C(F)(F)F)c1ccc(Cl)cc1)c1ccc(Cl)cc1` was tested, and the GI50 [1] was 11000 nM, the TGI [1] was 31200 nM and the GI50 [2] was 13400 nM. It also gave a TGI [2] of 31800 nM, a GI50 [3] of 10800 nM and a TGI [3] of 26900 nM. The GI50 [4] was 10200 nM, the TGI [4] was 35900 nM and the GI50 [5] was 19200 nM. The TGI [5] was 35800 nM, the GI50 [6] was 1980 nM and the TGI [6] was 9500 nM. It also gave a GI50 [7] of 14300 nM, a TGI [7] of 28700 nM and a GI50 [8] of 11500 nM. It also gave a TGI [8] of 23700 nM, a GI50 [10] of 16600 nM and a TGI [10] of 39500 nM.
With `COC(=O)[C@@H]1c2cc3c(c(O)c2[C@@H](OC2OC(C)C(OC)C(C)(OC)C2OC)C[C@]1(C)O)C(=O)c1c(O)cc2c(c1C3=O)O[C@H]1O[C@]2(C)[C@H](O)[C@@H](N(C)C)[C@@H]1O` (some centres not stated) the TGI [1] was 11100 nM, the TGI [2] was 35.1 nM and the TGI [3] was 532 nM and 348 nM. The TGI [4] was 74.9 nM and 59.4 nM, the TGI [5] was 54.6 nM and 418 nM and the GI50 [7] was 103 nM. The TGI [8] was 214 nM, the TGI [9] was 52.2 nM and 12.5 nM and the TGI [10] was 69.9 nM and 27.3 nM.
In the case of `O=C1NC(=C(Cl)Cl)/C(=N/S(=O)(=O)N2CCCCC2)N1`, the GI50 [1] is reported as 2380 nM, the TGI [1] is reported as 5340 nM and the GI50 [2] is reported as 2010 nM. It also gave a TGI [2] of 3880 nM, a GI50 [3] of 2100 nM and a TGI [3] of 4600 nM. The GI50 [4] was 1840 nM, the TGI [4] was 3390 nM and the GI50 [5] was 1750 nM. For the same compound, the TGI [5] was 3330 nM, the GI50 [6] was 1770 nM and the TGI [6] was 3260 nM. It also gave a GI50 [8] of 1850 nM, a TGI [8] of 3420 nM and a GI50 [9] of 1760 nM. It also gave a TGI [9] of 3770 nM, a GI50 [10] of 1920 nM and a TGI [10] of 3560 nM.
`COc1ccc2c(c1)C(=O)c1c-2n(CCCN(C)C)c(=O)c2ccccc12` gave a GI50 [1] of 264 nM, a TGI [1] of 3400 nM and a GI50 [2] of 187 nM. It also gave a TGI [2] of 2620 nM, a GI50 [3] of 186 nM and a TGI [3] of 11300 nM. For the same compound, the GI50 [4] was 530 nM, the TGI [4] was 2340 nM and the GI50 [5] was 886 nM. It also gave a TGI [5] of 4570 nM, a GI50 [6] of 243 nM and a TGI [6] of 4900 nM. The GI50 [7] was 645 nM, the TGI [7] was 8450 nM and the GI50 [8] was 1860 nM. For the same compound, the TGI [8] was 12900 nM, the GI50 [9] was 648 nM and the TGI [9] was 5290 nM. For the same compound, the GI50 [10] was 1770 nM and the TGI [10] was 8120 nM.
For `O=C(O)c1cc(-c2ccc3cc4c(cc3c2)OCO4)nc2ccccc12`, the TGI [1] was over 100000 nM, the TGI [2] was over 100000 nM and the TGI [3] was over 100000 nM. For the same compound, the TGI [4] was over 100000 nM, the TGI [5] was 87900 nM and the TGI [7] was 83000 nM. For the same compound, the TGI [8] was over 100000 nM, the TGI [9] was over 100000 nM and the TGI [10] was over 100000 nM.
In the case of `NS(=O)(=O)OC[C@H]1C[C@@H](Nc2ccnc3cc(-c4cccc(SC(F)(F)F)c4)nn23)[C@H](O)[C@@H]1O`, the GI50 [1] is reported as 30.1 nM, the TGI [1] is reported as 90.2 nM and the GI50 [2] is reported as 22.9 nM. The TGI [2] was 52.5 nM, the GI50 [3] was 21.6 nM and the TGI [3] was 68.2 nM. For the same compound, the GI50 [4] was 19.9 nM, the TGI [4] was 43.6 nM and the GI50 [5] was 30.8 nM. It also gave a TGI [5] of 78.8 nM, a GI50 [6] of 181 nM and a TGI [6] of 477 nM. The GI50 [7] was 28 nM, the TGI [7] was 104 nM and the GI50 [8] was 19.5 nM. For the same compound, the TGI [8] was 86.7 nM, the GI50 [9] was 39.7 nM and the TGI [9] was 187 nM. It also gave a GI50 [10] of 18.9 nM and a TGI [10] of 65 nM.
For `CN(Cc1ccccc1)Cn1ccnc1`, the TGI [1] was over 100000 nM, the TGI [2] was over 86700 nM and the TGI [3] was over 100000 nM. It also gave a TGI [4] of over 100000 nM, a TGI [5] of over 100000 nM and a TGI [6] of over 100000 nM. The TGI [7] was over 100000 nM, the TGI [8] was 98100 nM and the TGI [9] was over 100000 nM. The TGI [10] was over 68000 nM.
With `Cc1nn(CNc2ccccc2C(F)(F)F)c(=S)n1/N=C/c1cccc2cccnc12` the GI50 [1] was over 100000 nM, the TGI [1] was over 100000 nM and the GI50 [2] was over 100000 nM. The TGI [2] was over 100000 nM, the GI50 [3] was over 100000 nM and the TGI [3] was over 100000 nM. For the same compound, the GI50 [4] was over 100000 nM, the TGI [4] was over 100000 nM and the GI50 [5] was 74700 nM. The TGI [5] was over 100000 nM, the GI50 [6] was over 100000 nM and the TGI [6] was over 100000 nM. It also gave a GI50 [7] of over 100000 nM, a TGI [7] of over 100000 nM and a GI50 [8] of 23400 nM. It also gave a TGI [8] of 91700 nM, a GI50 [9] of 27400 nM and a TGI [9] of over 100000 nM. For the same compound, the GI50 [10] was over 100000 nM and the TGI [10] was over 100000 nM.
For `O=c1c2ccccc2sc2c(NCCCNCCO)nc3ccccc3c12`, the GI50 [1] was 2020 nM, the TGI [1] was 5130 nM and the GI50 [2] was 1470 nM. For the same compound, the TGI [2] was 3230 nM, the GI50 [3] was 1970 nM and the TGI [3] was 4460 nM. It also gave a GI50 [4] of 1460 nM, a TGI [4] of 3520 nM and a GI50 [5] of 922 nM. For the same compound, the TGI [5] was 5670 nM, the GI50 [6] was 1600 nM and the TGI [6] was 3200 nM. The GI50 [7] was 1670 nM, the TGI [7] was 4580 nM and the GI50 [8] was 1130 nM. For the same compound, the TGI [8] was 2630 nM, the GI50 [9] was 1640 nM and the TGI [9] was 4320 nM. It also gave a GI50 [10] of 1810 nM and a TGI [10] of 3520 nM.
With `COc1ccc2ncn(-c3cc(O[C@H](C)c4ccccc4C(F)(F)F)c(C(N)=O)s3)c2c1` the GI50 [1] was 1880 nM, the TGI [1] was 11300 nM and the GI50 [2] was 83.8 nM. For the same compound, the TGI [2] was 3240 nM, the GI50 [3] was 117 nM and the TGI [3] was 8810 nM. The GI50 [4] was 90.2 nM, the TGI [4] was 3720 nM and the GI50 [5] was 143 nM. For the same compound, the TGI [5] was 6440 nM, the GI50 [6] was 1650 nM and the TGI [6] was 17500 nM. The GI50 [7] was 1330 nM, the TGI [7] was 13100 nM and the GI50 [8] was 167 nM. It also gave a TGI [8] of 5190 nM, a GI50 [9] of 917 nM and a TGI [9] of 6600 nM. It also gave a GI50 [10] of 2640 nM and a TGI [10] of 8540 nM.
`CC(C)C[C@H](NC(=O)CNC(=O)c1cc(Cl)ccc1Cl)B(O)O` gave a GI50 [1] of 273 nM, a TGI [1] of over 87800 nM and a GI50 [2] of 43.2 nM. It also gave a TGI [2] of over 38500 nM, a GI50 [3] of 65.9 nM and a TGI [3] of 15300 nM. The GI50 [4] was under 13.8 nM, the TGI [4] was 35.6 nM and the GI50 [5] was 23.1 nM. It also gave a TGI [5] of 165 nM, a GI50 [6] of under 16.5 nM and a TGI [6] of 67.6 nM. It also gave a GI50 [8] of 30.2 nM, a TGI [8] of 140 nM and a GI50 [9] of 25.6 nM. The TGI [9] was 124 nM, the GI50 [10] was under 17.5 nM and the TGI [10] was 174 nM.
